Biological target: T1, LCAT (Homo sapiens, UniProt P04180)
T1 construct: The obtained fraction was dialyzed against phosphate-buffered saline (pH 7.4) and used as an enzyme source and an acceptor for LCAT; from tissue; host or cells: HDL3 fraction (1.125<specific gravity<1.210 g/mL) of plasma from a healthy person
T1 sequence (P04180 25-440): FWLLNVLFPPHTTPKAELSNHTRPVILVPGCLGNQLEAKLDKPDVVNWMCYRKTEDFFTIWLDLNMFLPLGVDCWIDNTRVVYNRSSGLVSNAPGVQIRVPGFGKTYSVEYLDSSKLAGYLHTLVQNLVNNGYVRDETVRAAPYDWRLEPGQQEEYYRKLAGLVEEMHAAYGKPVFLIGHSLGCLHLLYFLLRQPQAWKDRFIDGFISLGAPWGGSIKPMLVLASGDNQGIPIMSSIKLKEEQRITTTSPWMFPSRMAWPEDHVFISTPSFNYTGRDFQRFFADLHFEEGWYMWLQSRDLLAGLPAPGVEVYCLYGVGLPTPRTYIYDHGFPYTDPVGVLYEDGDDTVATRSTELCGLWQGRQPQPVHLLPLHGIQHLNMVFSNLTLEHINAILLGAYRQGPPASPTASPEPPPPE
Test: LCAT Activity Measurement (In Vitro)
Assay type: biochemical
Conditions: EC50 of LCAT activation; HDL3 fraction from plasma of a healthy person as enzyme source and acceptor; [14C]cholesterol; 37° C., approximately 16 hours
Outline: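 Human plasma HDL3 (1 mg/mL, PBS pH 7.4) served as enzyme and acceptor with [14C]cholesterol, 0.5 mM DTNB, 12.5 mM mercaptoethanol and 0.6% BSA; compounds in DMSO, incubated ~16 h at 37 °C. Cholesterol oleate radioactivity quantified after extraction and TLC; EC50 of activation fitted relative to no-drug control.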

EC50 [µM]	Structure (SMILES)
0.067	CC(C)Oc1ccc(N2CCC(c3n[nH]c4c3C(O)(C(F)(F)F)CC(=O)N4)CC2)nc1 (centres unmarked) [Example 52, 4-Hydroxy-3-{1-[5-(propan-2-yloxy)pyridin-2-yl]piperidin-4-yl}-4-(trifluoromethyl)-1,4,5,7-tetrahydro-6H-pyrazolo[3,4-b]pyridin-6-one]
0.38	O=C1CC(O)(C(F)(F)F)c2c(C3CCN(c4nccc(C(F)(F)F)n4)CC3)n[nH]c2N1 (centres unmarked) [Example 80, 4-Hydroxy-4-(trifluoromethyl)-3-{1-[4-(trifluoromethyl)pyrimidin-2-yl]piperidin-4-yl}-1,4,5,7-tetrahydro-6H-pyrazolo[3,4-b]pyridin-6-one]
0.19	CN(C)C(=O)c1cc(N2CCC(c3n[nH]c4c3C(O)(C(F)(F)F)CC(=O)N4)CC2)ccc1C(F)(F)F (centres unmarked) [Example 69, 5-{4-[4-Hydroxy-6-oxo-4-(trifluoromethyl)-4,5,6,7-tetrahydro-1H-pyrazolo[3,4-b]pyridin-3-yl]piperidin-1-yl}-N,N-dimethyl-2-(trifluoromethyl)benzamide]
0.17	N#Cc1cc(C(F)(F)F)cnc1N1CCC(c2n[nH]c3c2C(O)(C(F)(F)F)CC(=O)N3)CC1 (centres unmarked) [Example 101, 2-{4-[4-Hydroxy-6-oxo-4-(trifluoromethyl)-4,5,6,7-tetrahydro-1H-pyrazolo[3,4-b]pyridin-3-yl]piperidin-1-yl}-5-(trifluoromethyl)pyridine-3-carbonitrile]
0.079	O=C1CC(O)(C(F)(F)F)c2c(C3CCN(c4ccc(OC(F)F)cc4)CC3)n[nH]c2N1 (centres unmarked) [Example 55, 3-{1-[4-(Difluoromethoxy)phenyl]piperidin-4-yl}-4-hydroxy-4-(trifluoromethyl)-1,4,5,7-tetrahydro-6H-pyrazolo[3,4-b]pyridin-6-one]
0.035	O=C1CC(O)(C(F)(F)F)c2c(C3CCN(c4ccc(C(F)(F)F)c(F)n4)CC3)n[nH]c2N1 (centres unmarked) [Example 97, 3-{1-[6-Fluoro-5-(trifluoromethyl)pyridin-2-yl]piperidin-4-yl}-4-hydroxy-4-(trifluoromethyl)-1,4,5,7-tetrahydro-6H-pyrazolo[3,4-b]pyridin-6-one]
0.21	O=C1CC(O)(C(F)(F)F)c2c(C3CCN(c4cc(C(F)(F)F)nc(C5CC5)n4)CC3)n[nH]c2N1 (centres unmarked) [Example 92, 3-{1-[2-Cyclopropyl-6-(trifluoromethyl)pyrimidin-4-yl]piperidin-4-yl}-4-hydroxy-4-(trifluoromethyl)-1,4,5,7-tetrahydro-6H-pyrazolo[3,4-b]pyridin-6-one]
0.007	N#Cc1cc(N2CCC(c3n[nH]c4c3C(O)(C(F)(F)F)CC(=O)N4)CC2)ccc1OC(F)(F)F (centres unmarked) [Example 62, 5-{4-[4-Hydroxy-6-oxo-4-(trifluoromethyl)-4,5,6,7-tetrahydro-1H-pyrazolo[3,4-b]pyridin-3-yl]piperidin-1-yl}-2-(trifluoromethoxy)benzonitrile]
1.1	N#Cc1cnc(N2CCC(c3n[nH]c4c3C(O)(C(F)(F)F)CC(=O)N4)CC2)c(C(F)(F)F)c1 (centres unmarked) [Example 104, 6-{4-[4-Hydroxy-6-oxo-4-(trifluoromethyl)-4,5,6,7-tetrahydro-1H-pyrazolo[3,4-b]pyridin-3-yl]piperidin-1-yl}-5-(trifluoromethyl)pyridine-3-carbonitrile]
0.14	O=C1CC(O)(C(F)(F)F)c2c(C3CCN(c4ccc(Br)cn4)CC3)n[nH]c2N1 (centres unmarked) [Example 74, 3-[1-(5-Bromopyridin-2-yl)piperidin-4-yl]-4-hydroxy-4-(trifluoromethyl)-1,4,5,7-tetrahydro-6H-pyrazolo[3,4-b]pyridin-6-one]
0.023	CC(C)(C)c1ncc(N2CCC(c3n[nH]c4c3C(O)(C(F)(F)F)CC(=O)N4)CC2)cn1 (centres unmarked) [Example 72, 3-[1-(2-tert-Butylpyrimidin-5-yl)piperidin-4-yl]-4-hydroxy-4-(trifluoromethyl)-1,4,5,7-tetrahydro-6H-pyrazolo[3,4-b]pyridin-6-one]
0.013	O=C1CC(O)(C(F)(F)F)c2c(C3CCN(c4cc(C(=O)OCc5ccccc5)c(C(F)(F)F)cn4)CC3)n[nH]c2N1 (centres unmarked) [Example 85, Benzyl 2-[4-(4-hydroxy-6-oxo-4-(trifluoromethyl)-4,5,6,7-tetrahydro-1H-pyrazolo[3,4-b]pyridin-3-yl)piperidin-1-yl]-5-(trifluoromethyl)pyridine-4-carboxylate]

Second part, the compound before the results:

Structure (SMILES)	EC50 [µM]
N#Cc1ccc(N2CCC(c3n[nH]c4c3C(O)(C(F)(F)F)CC(=O)N4)CC2)nc1 (centres unmarked) [Example 31, 6-{4-[4-Hydroxy-6-oxo-4-(trifluoromethyl)-4,5,6,7-tetrahydro-1H-pyrazolo[3,4-b]pyridin-3-yl]piperidin-1-yl}pyridine-3-carbonitrile]	0.33
O=C1CC(O)(C(F)(F)F)c2c(C3CCN(c4cc(I)c(C(F)(F)F)cn4)CC3)n[nH]c2N1 (single isomer, unassigned) [Compound 103-1, 4-hydroxy-3-{1-[4-iodo-5-(trifluoromethyl)pyridin-2-yl]piperidin-4-yl}-4-(trifluoromethyl)-1,4,5,7-tetrahydro-6H-pyrazolo[3,4-b]pyridin-6-one]	0.027
Cc1nc(N2CCC(c3n[nH]c4c3C(O)(C(F)(F)F)CC(=O)N4)CC2)ccc1C#N (centres unmarked) [Example 20, 6-{4-[4-Hydroxy-6-oxo-4-(trifluoromethyl)-4,5,6,7-tetrahydro-1H-pyrazolo[3,4-b]pyridin-3-yl]piperidin-1-yl}-2-methylpyridine-3-carbonitrile]	0.29
Cc1cc(N2CCC(c3n[nH]c4c3C(O)(C(F)(F)F)CC(=O)N4)CC2)ncc1C#N (centres unmarked) [Example 42, 6-{4-[4-Hydroxy-6-oxo-4-(trifluoromethyl)-4,5,6,7-tetrahydro-1H-pyrazolo[3,4-b]pyridin-3-yl]piperidin-1-yl}-4-methylpyridine-3-carbonitrile]	0.14
O=C1CC(O)(C(F)(F)F)c2c(C3CCN(c4cnc(C(F)(F)F)cn4)CC3)n[nH]c2N1 (centres unmarked) [Example 46, 4-Hydroxy-4-(trifluoromethyl)-3-{1-[5-(trifluoromethyl)pyrazin-2-yl]piperidin-4-yl}-1,4,5,7-tetrahydro-6H-pyrazolo[3,4-b]pyridin-6-one]	0.012
COc1cccc(N2CCC(c3n[nH]c4c3C(O)(C(F)(F)F)CC(=O)N4)CC2)n1 (centres unmarked) [Example 12, 4-Hydroxy-3-[1-(6-methoxypyridin-2-yl)piperidin-4-yl]-4-(trifluoromethyl)-1,4,5,7-tetrahydro-6H-pyrazolo[3,4-b]pyridin-6-one]	0.054
O=C1CC(O)(C(F)(F)F)c2c(C3CCN(c4ccc(OC(F)F)cn4)CC3)n[nH]c2N1 (centres unmarked) [Example 51, 3-{1-[5-(Difluoromethoxy)pyridin-2-yl]piperidin-4-yl}-4-hydroxy-4-(trifluoromethyl)-1,4,5,7-tetrahydro-6H-pyrazolo[3,4-b]pyridin-6-one]	0.081
Cc1ccc(N2CCC(c3n[nH]c4c3C(O)(C(F)(F)F)CC(=O)N4)CC2)nc1 (centres unmarked) [Example 4, 4-Hydroxy-3-[1-(5-methylpyridin-2-yl)piperidin-4-yl]-4-(trifluoromethyl)-1,4,5,7-tetrahydro-6H-pyrazolo[3,4-b]pyridin-6-one]	0.25
O=C1CC(O)(C(F)(F)F)c2c(C3CCN(c4cc(C(F)(F)F)ccn4)CC3)n[nH]c2N1 (centres unmarked) [Example 13, 4-Hydroxy-4-(trifluoromethyl)-3-{1-[4-(trifluoromethyl)pyridin-2-yl]piperidin-4-yl}-1,4,5,7-tetrahydro-6H-pyrazolo[3,4-b]pyridin-6-one]	0.056
O=C1CC(O)(C(F)(F)F)c2c(C3CCN(c4ccc5ccccc5n4)CC3)n[nH]c2N1 (centres unmarked) [Example 16, 4-Hydroxy-3-[1-(quinolin-2-yl)piperidin-4-yl]-4-(trifluoromethyl)-1,4,5,7-tetrahydro-6H-pyrazolo[3,4-b]pyridin-6-one]	0.096
O=C1CC(O)(C(F)(F)F)c2c(C3CCN(c4ccc(C(F)(F)F)c(Cl)n4)CC3)n[nH]c2N1 (centres unmarked) [Compound 98-a, 3-{1-[6-Chloro-5-(trifluoromethyl)pyridin-2-yl]piperidin-4-yl}-4-hydroxy-4-(trifluoromethyl)-1,4,5,7-tetrahydro-6H-pyrazolo[3,4-b]pyridin-6-one]	0.023
O=C1CC(O)(C(F)(F)F)c2c(C3CCN(c4ccc(C(F)(F)F)cn4)CC3)n[nH]c2N1 (single isomer, unassigned; (+)) [Compound 49-2, (+)-4-hydroxy-4-(trifluoromethyl)-3-{1-[5-(trifluoromethyl)pyridin-2-yl]piperidin-4-yl}-1,4,5,7-tetrahydro-6H-pyrazolo[3,4-b]pyridin-6-one]	3.77
O=C1CC(O)(C(F)(F)F)c2c(C3CCN(c4nc(C(F)(F)F)cs4)CC3)n[nH]c2N1 (centres unmarked) [Compound 48-a, 4-Hydroxy-4-(trifluoromethyl)-3-{1-[4-(trifluoromethyl)-1,3-thiazol-2-yl]piperidin-4-yl}-1,4,5,7-tetrahydro-6H-pyrazolo[3,4-b]pyridin-6-one]	0.08
O=C1CC(O)(C(F)(F)F)c2c(C3CCN(c4nccs4)CC3)n[nH]c2N1 (centres unmarked) [Example 29, 4-Hydroxy-3-[1-(1,3-thiazol-2-yl)piperidin-4-yl]-4-(trifluoromethyl)-1,4,5,7-tetrahydro-6H-pyrazolo[3,4-b]pyridin-6-one]	1.88

Reference: patent US9150575B2, “Piperidinylpyrazolopyridine derivative” (Daiichi Sankyo Company, Limited, priority 2012, dated 2015)
